Key:
Format in all cases: cell-based
human S1PR3 = biological target: T1, human S1PR3 (Homo sapiens, UniProt Q99500); assay: Intracellular Ca2+ release (FLIPR) agonist potency, S1P3; conditions: recombinant CHO-K1 cells expressing human S1PR3, aequorin, Gq/i5; Calcium 5 FLIPR; read-out: S1P3 EC50
T1 construct: host or cells: CHO-K1
Description: Agonistic activity was measured using the method described below.
Intracellular Ca^2+ Release
Agonist potency and intrinsic activity was assessed by measurement of intracellular Ca^2+ release. Recombinant CHO-K1 cells (Euroscreen, Brussels, Belgium) expressing human S1PR5, S1PR1, S1PR3 or S1PR4 receptors, aequorin, and GTP binding protein Gq/i5 were cultured using a medium containing nutrient mixture F-12 Ham (Sigma-Aldrich) with 10% FBS, and 100 μg/mL gentamicin and equilibrated at 5% CO2.
Phospho-fingolimod was used as positive control. Antagonists were pre-incubated for 10 min with cells before addition of the agonist (phospho-fingolimod at EC80). Measurements were performed using a fluorometric imaging plate reader FLIPR®tetra (Molecular Devices). Agonist at the human S1P receptors were characterized by deducing EC50 (potency) values from a nonlinear fit to the measured fluorescence raw data after normalization to the reference agonist (phospho-fingolimod) curve.

human S1PR4 = biological target: T2, human S1PR4 (Homo sapiens, UniProt O95977); assay: Intracellular Ca2+ release (FLIPR) agonist potency, S1P4; conditions: recombinant CHO-K1 cells expressing human S1PR4, aequorin, Gq/i5; Calcium 5 FLIPR; read-out: S1P4 EC50
T2 construct: host or cells: CHO-K1
T2 sequence (O95977 1-384): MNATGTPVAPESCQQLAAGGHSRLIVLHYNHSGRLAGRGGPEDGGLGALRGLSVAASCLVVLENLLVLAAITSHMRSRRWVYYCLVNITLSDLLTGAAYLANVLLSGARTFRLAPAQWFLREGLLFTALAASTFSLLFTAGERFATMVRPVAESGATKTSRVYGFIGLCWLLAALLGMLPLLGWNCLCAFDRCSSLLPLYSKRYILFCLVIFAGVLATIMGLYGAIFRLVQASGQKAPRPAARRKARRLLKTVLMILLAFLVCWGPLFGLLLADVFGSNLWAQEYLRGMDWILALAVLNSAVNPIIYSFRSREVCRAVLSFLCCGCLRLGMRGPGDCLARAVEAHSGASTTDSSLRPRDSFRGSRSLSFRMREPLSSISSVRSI
How it was run: (§1)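 CHO-K1 cells expressing the human receptor, aequorin and Gq/i5 were used; Ca²⁺ release read on FLIPR. EC50 derived from nonlinear fit of fluorescence data normalized to the phospho-fingolimod reference curve.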

human S1PR5 = biological target: T3, human S1PR5 (Homo sapiens, UniProt Q9H228); assay: Intracellular Ca2+ release (FLIPR) agonist potency, S1P5; conditions: recombinant CHO-K1 cells expressing human S1PR5, aequorin, Gq/i5; Calcium 5 FLIPR; read-out: S1P5 EC50 range
T3 construct: host or cells: CHO-K1
T3 sequence (Q9H228 whole entry): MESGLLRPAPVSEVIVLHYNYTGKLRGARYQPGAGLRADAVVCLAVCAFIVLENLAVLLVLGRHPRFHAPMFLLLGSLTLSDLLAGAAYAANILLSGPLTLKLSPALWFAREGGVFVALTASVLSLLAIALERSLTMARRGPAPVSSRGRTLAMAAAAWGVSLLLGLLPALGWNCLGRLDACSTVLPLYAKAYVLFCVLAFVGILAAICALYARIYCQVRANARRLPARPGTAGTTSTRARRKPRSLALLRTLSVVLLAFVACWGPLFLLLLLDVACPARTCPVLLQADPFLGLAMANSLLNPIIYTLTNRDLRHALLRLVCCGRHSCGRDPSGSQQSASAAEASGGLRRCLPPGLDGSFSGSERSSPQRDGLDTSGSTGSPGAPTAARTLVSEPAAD
How it was run: as §1

human S1PR1 = biological target: T4, human S1PR1 (Homo sapiens, UniProt P21453); assay: Intracellular Ca2+ release (FLIPR) agonist potency, S1P1; conditions: recombinant CHO-K1 cells expressing human S1PR1, aequorin, Gq/i5; Calcium 5 FLIPR; read-out: S1P1 EC50
T4 construct: host or cells: CHO-K1
T4 sequence (P21453 whole entry): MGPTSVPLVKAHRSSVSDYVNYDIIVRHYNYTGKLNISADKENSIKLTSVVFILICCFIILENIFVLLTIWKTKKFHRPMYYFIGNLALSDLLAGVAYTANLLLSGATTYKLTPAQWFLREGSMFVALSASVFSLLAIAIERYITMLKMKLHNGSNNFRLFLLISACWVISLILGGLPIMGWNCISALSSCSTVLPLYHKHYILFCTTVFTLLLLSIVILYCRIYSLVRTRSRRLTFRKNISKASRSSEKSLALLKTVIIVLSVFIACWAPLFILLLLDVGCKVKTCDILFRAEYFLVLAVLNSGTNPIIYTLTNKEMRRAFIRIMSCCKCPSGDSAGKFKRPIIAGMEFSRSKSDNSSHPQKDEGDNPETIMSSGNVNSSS
How it was run: as §1

T1 sequence (Q99500 whole entry): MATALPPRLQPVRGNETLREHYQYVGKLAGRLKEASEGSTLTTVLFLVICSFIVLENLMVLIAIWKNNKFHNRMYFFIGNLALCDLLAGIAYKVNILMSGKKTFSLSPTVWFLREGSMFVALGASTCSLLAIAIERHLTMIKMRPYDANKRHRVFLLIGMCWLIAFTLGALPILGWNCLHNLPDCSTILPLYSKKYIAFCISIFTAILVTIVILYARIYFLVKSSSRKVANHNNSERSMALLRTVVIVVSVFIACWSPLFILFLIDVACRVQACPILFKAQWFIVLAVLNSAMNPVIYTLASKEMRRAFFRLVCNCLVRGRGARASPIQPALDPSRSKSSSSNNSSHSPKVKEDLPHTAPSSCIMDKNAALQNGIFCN

SMILES | EC50 (human S1PR3) [nM] | EC50 (human S1PR4) [nM] | EC50 (human S1PR5) [nM] | EC50 (human S1PR1) [nM]
O=C(O)CNC1CCc2cc(C#Cc3c(Cl)cccc3Cl)ccc2C1 (centres unmarked) [Compound 29, 2-((6-((2,6-dichlorophenyl)ethynyl)-1,2,3,4-tetrahydronaphthalen-2-yl)amino)acetic acid] | > 1000 | < 1000 | < 10 | > 1000
CC(NC1CCc2cc(OCc3c(Cl)cccc3Cl)ccc2C1)C(=O)O (centres unmarked) [Compound 33, 2-((6-((2,6-dichlorobenzyl)oxy)-1,2,3,4-tetrahydronaphthalen-2-yl)amino)propanoic acid] | > 1000 | < 1000 | < 10 | > 1000
O=C(O)[C@H]1C[C@H](NC2CCc3cc(OCc4c(Cl)cccc4Cl)ccc3C2)C1 (some centres unmarked) [Compound 79, (1r,3r)-3-((6-((2,6-dichlorobenzyl)oxy)-1,2,3,4-tetrahydronaphthalen-2-yl)amino)cyclobutanecarboxylic acid] | > 1000 | < 1000 | < 10 | < 1000
O=C(O)CCNC1CCc2cc(/C=C/c3cccc(Cl)c3)ccc2C1 (centres unmarked) [Compound 20, (E)-3-((6-(3-chlorostyryl)-1,2,3,4-tetrahydronaphthalen-2-yl)amino)-propanoic acid] | > 1000 | < 1000 | < 10 | > 1000
O=C(O)COC1CCc2cc(OCc3c(Cl)cccc3Cl)ccc2C1 (centres unmarked) [Compound 210, 2-[6-[(2,6-dichlorophenyl)methoxy]tetralin-2-yl]oxyacetic acid] | > 1000 | > 1000 | 100 to 1000 | > 1000
CCc1cccc(F)c1COc1ccc2c(c1)OCC(N1CC(C(=O)O)C1)C2 (centres unmarked) [Compound 65, 1-(7-((2-ethyl-6-fluorobenzyl)oxy)chroman-3-yl)azetidine-3-carboxylic acid] | > 1000 | < 1000 | < 10 | > 1000
CCc1cccc(Cl)c1COc1ccc2c(c1)OCC(NCC(=O)O)C2 (centres unmarked) [Compound 34, 2-((7-((2-chloro-6-ethylbenzyl)oxy)chroman-3-yl)amino)acetic acid] | > 1000 | < 1000 | < 10 | > 1000
O=C(O)C1CN(C2COc3cc(C#Cc4ccccc4OC(F)F)ccc3C2)C1 (centres unmarked) [Compound 42, 1-(7-((2-(difluoromethoxy)phenyl)ethynyl)chroman-3-yl)azetidine-3-carboxylic acid] | > 1000 | > 1000 | 10 to 100 | > 1000
CN(CCC(=O)O)C1CCc2cc(OCc3ccccc3Cl)ccc2C1 (centres unmarked) [Compound 16, 3-((6-((2-chlorobenzyl)oxy)-1,2,3,4-tetrahydronaphthalen-2-yl)(methyl)amino)propanoic acid] | > 1000 | < 1000 | 100 to 1000 | > 1000
O=C(O)CCNC1CCc2cc(OCc3c(Cl)cccc3C3CC3)ccc2C1 (centres unmarked) [Compound 21, 3-((6-((2-chloro-6-cyclopropylbenzyl)oxy)-1,2,3,4-tetrahydronaphthalen-2-yl)amino)propanoic acid] | > 1000 | > 1000 | 1000 to 10000 | > 1000
O=C(O)COC1CCc2cc(OCc3cccc(C(F)(F)F)c3)ccc2C1 (centres unmarked) [Compound 213, 2-[6-[[3-(trifluoromethyl)phenyl]methoxy]tetralin-2-yl]oxyacetic acid] | > 1000 | < 1000 | 10 to 100 | > 1000
CN(CCC(=O)O)C1CCc2cc(C#Cc3cc(F)cc(F)c3)ccc2C1 (centres unmarked) [Compound 15, 3-((6-((3,5-difluorophenyl)ethynyl)-1,2,3,4-tetrahydronaphthalen-2-yl)(methyl)amino)propanoic acid] | > 1000 | < 1000 | < 10 | > 1000
O=C(O)C1CN(C2COc3cc(C#Cc4ccccc4C(F)(F)F)ccc3C2)C1 (centres unmarked) [Compound 41, 1-(7-((2-(trifluoromethyl)phenyl)ethynyl)chroman-3-yl)azetidine-3-carboxylic acid] | > 1000 | > 1000 | 10 to 100 | > 1000
O=C(O)CCNC1CCc2cc(C#Cc3cc(F)cc(F)c3)ccc2C1 (centres unmarked) [Compound 14, 3-((6-((3,5-difluorophenyl)ethynyl)-1,2,3,4-tetrahydronaphthalen-2-yl)amino)propanoic acid] | > 1000 | < 1000 | < 10 | > 1000
O=C(O)C1CN(C2COc3cc(C#Cc4cccc(Cl)c4)ccc3C2)C1 (centres unmarked) [Compound 40, 1-(7-((3-chlorophenyl)ethynyl)chroman-3-yl)azetidine-3-carboxylic acid] | > 1000 | < 1000 | 10 to 100 | > 1000
O=C(O)C1CN(C2COc3cc(OCc4c(Cl)cccc4C4CC4)ccc3C2)C1 (centres unmarked) [Compound 25, 1-(7-((2-chloro-6-cyclopropylbenzyl)oxy)chroman-3-yl)azetidine-3-carboxylic acid] | > 1000 | < 1000 | < 10 | > 1000
O=C(O)CC1CN(C2CCc3cc(OCc4c(Cl)cccc4Cl)ccc3C2)C1 (centres unmarked) [Compound 78, 2-(1-(6-((2,6-dichlorobenzyl)oxy)-1,2,3,4-tetrahydronaphthalen-2-yl)azetidin-3-yl)acetic acid] | > 1000 | < 1000 | < 10 | > 1000
O=C(O)CNC1CCc2cc(C#CC3CCCCC3)ccc2C1 (centres unmarked) [Compound 30, 2-((6-(cyclohexylethynyl)-1,2,3,4-tetrahydronaphthalen-2-yl)amino)acetic acid] | > 1000 | < 1000 | < 10 | > 1000
O=C(O)C1CN(C2COc3cc(CCc4cc(F)cc(F)c4)ccc3C2)C1 (centres unmarked) [Compound 81, 1-(7-(3,5-difluorophenethyl)chroman-3-yl)azetidine-3-carboxylic acid] | > 1000 | > 1000 | 1000 to 10000 | > 1000
CCc1cccc(Cl)c1COc1ccc2c(c1)CCC(NCC(=O)N(C)OC)C2 (centres unmarked) [Compound 216, 2-[[6-[(2-chloro-6-ethyl-phenyl)methoxy]tetralin-2-yl]amino]-N-methoxy-N-methyl-acetamide] | > 1000 | > 1000 | < 10 | > 1000
C=C(CN(Cc1c(Cl)cccc1CC)C1CCc2cc(OCc3c(Cl)cccc3CC)ccc2C1)C(=O)OC (centres unmarked) [Compound 22, Methyl 2-(((2-chloro-6-ethylbenzyl)(6-((2-chloro-6-ethylbenzyl)oxy)-1,2,3,4-tetrahydronaphthalen-2-yl)amino)methyl)acrylate] | > 1000 | > 1000 | 1000 to 10000 | > 1000
CCc1cccc(Cl)c1COc1ccc2c(c1)CCC(NCC(=O)NO)C2 (centres unmarked) [Compound 236, 2-((6-((2-chloro-6-ethylbenzyl)oxy)-1,2,3,4-tetrahydronaphthalen-2-yl)amino)acetohydroxamic acid] | > 1000 | < 1000 | < 10 | > 1000
O=C(O)COC1CCc2cc(OCc3cc(OC(F)(F)F)ccc3F)ccc2C1 (centres unmarked) [Compound 161, 2-[6-[[2-fluoro-5-(trifluoromethoxy)phenyl]methoxy]tetralin-2-yl]oxyacetic acid] | > 1000 | > 1000 | 10 to 100 | > 1000
O=C(O)[C@H]1C[C@@H](NC2CCc3cc(OCc4c(Cl)cccc4Cl)ccc3C2)C1 (some centres unmarked) [Compound 77, (1 s,3s)-3-((6-((2,6-dichlorobenzyl)oxy)-1,2,3,4-tetrahydronaphthalen-2-yl)amino)cyclobutanecarboxylic acid] | > 1000 | < 1000 | < 10 | < 1000
O=C(O)CC1CCN(C2CCc3cc(OCc4c(Cl)cccc4Cl)ccc3C2)C1 (centres unmarked) [Compound 80, 2-(1-(6-((2,6-dichlorobenzyl)oxy)-1,2,3,4-tetrahydronaphthalen-2-yl)pyrrolidin-3-yl)acetic acid] | > 1000 | < 1000 | 10 to 100 | > 1000
O=C(O)C1CN(C2COc3cc(OCc4c(F)cccc4C4CC4)ccc3C2)C1 (centres unmarked) [Compound 67, 1-(7-((2-cyclopropyl-6-fluorobenzyl)oxy)chroman-3-yl)azetidine-3-carboxylic acid] | > 1000 | < 1000 | < 10 | > 1000

— patent US10280159B2 (AbbVie Deutschland GmbH & Co. KG, priority 2015, dated 2019)
